# Assay results: US10858335B2 (Rigel Pharmaceuticals, Inc., priority 2014, dated 2020)
# Test system: GDF8 signaling (p-SMAD-3 (Ser423/425))
# Experiment: AlphaScreen SureFire SMAD3 (p-Ser423/425) assay, GDF8-stimulated cells (GDF pSMAD)
# Type: cell-based
# Settings: MPC11; GDF8-stimulated; p-SMAD3 AlphaScreen; read-out: GDF pSMAD (MPC11) (inhibition of GDF8 signaling)
row,SMILES,IC50 [µM]
1,"Cc1cc(-c2ncccc2-c2ccn3ncc(C(=O)NC4CC5CCC(C4)N5C)c3c2)ccc1F (stereo not drawn) [compound 716, endo-5-(2-(4-Fluoro-3-methylphenyl)pyridin-3-yl)-N-(8-methyl-8-azabicyclo[3.2.1]octan-3-yl)pyrazolo[1,5-a]pyridine-3-carboxamide]",5.03

# Same assay, conditions: Mus musculus, MPC-11, GDF8-stimulated pSMAD3, MPC11; tested as the salt form given; read-out: GDF pSMAD (MPC11) (μM), inhibition of GDF8 signaling
row,IC50 [µM],SMILES
1,3.61,"Fc1cc(F)c(F)c(-c2ncccc2-c2ccn3nccc3n2)c1 [compound 1052, 6-(2-(4-Fluoro-2,5-dimethylphenyl)pyridin-3-yl)-[,2,4]triazolo[1,5-a]pyridine]"

# Same assay, conditions: Mus musculus, MPC-11, MPC11; GDF8-stimulated; p-SMAD3 AlphaScreen; read-out: GDF pSMAD (MPC11) (inhibition of GDF8 signaling)
row,IC50 [µM],SMILES
1,5.35,"Oc1ccc(-c2ncccc2-c2ccc3[nH]ncc3c2)cc1 [Compound 121, 4-(3-(1H-Indazol-5-yl)pyridin-2-yl)phenol]"
2,0.326,"Cc1cc(-c2ncccc2-c2ccc3ncc(C(=O)NCCCN(C)C)n3c2)ccc1F [compound 608, N-(3-(Dimethylamino)propyl)-6-(2-(4-fluoro-3-methylphenyl)pyridin-3-yl)imidazo[1,2-a]pyridine-3-carboxamide]"
3,0.959,"COc1ncnc2ccc(-c3cccnc3-c3ccc(F)c(Cl)c3)cc12 [compound 395, 6-(2-(3-Chloro-4-fluorophenyl)pyridin-3-yl)-4-methoxyquinazoline]"
4,14.3,"Cc1cc(-c2ncccc2-c2ccc3nccc(C(N)=O)c3c2)ccc1F [compound 846, 6-(2-(4-Fluoro-3-methylphenyl)pyridin-3-yl)quinoline-4-carboxamide]"
5,0.227,"Cc1cc(-c2ncccc2-c2ccn3ncc(C(=O)NCCCN4CCCC4)c3c2)ccc1F [compound 675, 5-(2-(4-Fluoro-3-methylphenyl)pyridin-3-yl)-N-(3-(pyrrolidin-1-yl)propyl)pyrazolo[1,5-a]pyridine-3-carboxamide]"
6,6.77,"Cc1cc(-c2ncc(NC(=O)N3CCOCC3)cc2-c2ccc3nccn3c2)ccc1F [compound 219, N-(6-(4-Fluoro-3-methylphenyl)-5-(imidazo[1,2-a]pyridin-6-yl)pyridin-3-yl)morpholine-4-carboxamide]"
7,5.5,"Cc1cc(-c2ncc(NC(=O)CCCc3ccncc3)cc2-c2ccc3ncsc3c2)ccc1F [compound 317, N-(5-(Benzo[d]thiazol-6-yl)-6-(4-fluoro-3-methylphenyl)pyridin-3-yl)-4-(pyridin-4-yl)butanamide]"
8,16.7,"Cc1cc(-c2ncccc2-c2ccc3nc(N)ncc3c2)ccc1F [compound 383, 6-(2-(4-Fluoro-3-methylphenyl)pyridin-3-yl)quinazolin-2-amine]"
9,3.03,"OCc1cccc(-c2ncccc2-c2ccc3[nH]ncc3c2)c1 [Compound 91, [3-(3-(1H-Indazol-5-yl)pyridin-2-yl)phenyl]methanol]"
10,7.31,"c1cc(-c2ncccc2-c2ccc3ncc(CN4CCOCC4)n3c2)cc(C2CC2)c1 [compound 571, 4-((6-(2-(3-Cyclopropylphenyl)pyridin-3-yl)imidazo[1,2-a]pyridin-3-yl)methyl)morpholine]"
11,3.93,"N#Cc1cnc2ccc(-c3cccnc3-c3cccc(F)c3)cn12 [compound 621, 6-(2-(3-Fluorophenyl)pyridin-3-yl)imidazo[1,2-a]pyridine-3-carbonitrile]"
12,0.306,"Cc1cc(-c2ncc(NCc3cnc4c(c3)ncn4C)cc2-c2ccc3ncsc3c2)ccc1F [compound 335, 5-(Benzo[d]thiazol-6-yl)-6-(4-fluoro-3-methylphenyl)-N-((3-methyl-3H-imidazo[4,5-b]pyridin-6-yl)methyl)pyridin-3-amine]"
13,0.894,"Cc1cc(-c2ncccc2-c2ccc3cn[nH]c3c2)ccc1F [Compound 99, 6-(2-(4-Fluoro-3-methylphenyl)pyridin-3-yl)-1H-indazole]"
14,0.15,"COC(=O)c1cnc2ccc(-c3cccnc3-c3ccc(F)c(C)c3)cn12 [compound 685, Methyl 6-(2-(4-fluoro-3-methylphenyl)pyridin-3-yl)imidazo[1,2-a]pyridine-3-carboxylate]"
15,5.54,"Cc1cc(-c2nc3c(cc2-c2ccc4ncccc4c2)NC(=O)CO3)ccc1F [compound 293, 6-(4-Fluoro-3-methylphenyl)-7-(quinolin-6-yl)-1H-pyrido[2,3-b] [1,4]oxazin-2(3H)-one]"
16,21.1,"Nc1ncnc2ccc(-c3cccnc3-c3ccc4c(c3)CCC4)cc12 [compound 470, 6-(2-(2,3-Dihydro-1H-inden-5-yl)pyridin-3-yl)quinazolin-4-amine]"
17,12.8,"Cc1cc(-c2nc3c(cc2-c2ccc4[nH]ncc4c2)N(C)CCO3)ccc1F [compound 300, 6-(4-Fluoro-3-methylphenyl)-7-(1H-indazol-5-yl)-1-methyl-2,3-dihydro-1H-pyrido[2,3-b][1,4]oxazine]"
18,0.853,"COc1cc(NC(=O)c2cnc3ccc(-c4cccnc4-c4cccc(C)c4)cn23)cc(OC)c1OC [compound 574, 6-(2-(m-Tolyl)pyridin-3-yl)-N-(3,4,5-trimethoxyphenyl)imidazo[1,2-a]pyridine-3-carboxamide]"
19,0.104,"Cc1cccc(-c2ncc(N)cc2-c2ccc3ncsc3c2)c1 [Compound 20, 5-(Benzo[d]thiazol-6-yl)-6-m-tolylpyridin-3-amine]"

row,IC50 [µM],SMILES
1,0.524,"Cc1cc(-c2ncc(NCc3ccc(S(N)(=O)=O)cc3)cc2-c2ccc3ncsc3c2)ccc1F [compound 359, 4-(((5-(Benzo[d]thiazol-6-yl)-6-(4-fluoro-3-methylphenyl)pyridin-3-yl)amino)methyl)benzenesulfonamide]"
2,0.187,"Cc1cccc(-c2ncccc2-c2ccc3nc[nH]c3c2)c1 [Compound 178, 6-(2-m-Tolylpyridin-3-yl)-1H-benzo[d]imidazole]"
3,0.222,"Cc1cc(-c2ncccc2-c2ccn3ncc(C(=O)NCCO)c3c2)ccc1F [compound 707, 5-(2-(4-Fluoro-3-methylphenyl)pyridin-3-yl)-N-(2-hydroxyethyl)pyrazolo[1,5-a]pyridine-3-carboxamide]"
4,0.265,"Cc1cc(-c2ncc(NCc3ccncc3)cc2-c2ccc3ncsc3c2)ccc1F [compound 509, 5-(Benzo[d]thiazol-6-yl)-6-(4-fluoro-3-methylphenyl)-N-(pyridin-4-ylmethyl)pyridin-3-amine]"
5,3.34,"Cc1cc(-c2ncccc2-c2ccnc(Nc3ccc(S(N)(=O)=O)cc3)n2)ccc1F [compound 906, 4-((4-(2-(4-Fluoro-3-methylphenyl)pyridin-3-yl)pyrimidin-2-yl)amino)benzenesulfonamide]"
6,17.5,"CC(C)c1cccc(-c2ncccc2-c2cnc3[nH]ncc3c2)c1 [Compound 167, 5-(2-(3-Isopropylphenyl)pyridin-3-yl)-1H-pyrazolo[3,4-b]pyridine]"
7,0.258,"Cc1cccc(-c2ncccc2-c2ccn3ncnc3c2)c1 [compound 732, 7-(2-(m-Tolyl)pyridin-3-yl)-[1,2,4]triazolo[1,5-a]pyridine]"
8,0.775,"Clc1ccc(Cl)c(-c2ncccc2-c2ccc3nccn3c2)c1 [compound 872, 6-(2-(2,5-Dichlorophenyl)pyridin-3-yl)imidazo[1,2-a]pyridine]"
9,4.54,"Cc1cc(-c2ncccc2-c2ccn3c(C(=O)NCCCN4CCOCC4)ncc3c2)ccc1F [compound 266, 7-(2-(4-Fluoro-3-methylphenyl)pyridin-3-yl)-N-(3-morpholinopropyl)imidazo[1,5-a]pyridine-3-carboxamide]"
10,1.17,"COc1cc(NC(=O)c2cnc3ccc(-c4cccnc4-c4cccc(C5CC5)c4)cn23)cc(OC)c1OC [compound 575, 6-(2-(3-Cyclopropylphenyl)pyridin-3-yl)-N-(3,4,5-trimethoxyphenyl)imidazo[1,2-a]pyridine-3-carboxamide]"
11,12.4,"Cc1cc(-c2ncccc2-c2ccc3ncc(C(=O)O)n3c2)ccc1F [compound 579, 6-(2-(4-Fluoro-3-methylphenyl)pyridin-3-yl)imidazo[1,2-a]pyridine-3-carboxylic acid]"
12,0.881,"Cn1ccc(-c2cnc3ccc(-c4cccnc4-c4ccc(F)c(Cl)c4)cn23)n1 [compound 853, 6-(2-(3-Chloro-4-fluorophenyl)pyridin-3-yl)-3-(1-methyl-1H-pyrazol-3-yl)imidazo[1,2-a]pyridine]"
13,0.198,"Cc1cc(-c2ncc(NCc3nccs3)cc2-c2ccc3ncsc3c2)ccc1F [compound 326, 5-(Benzo[d]thiazol-6-yl)-6-(4-fluoro-3-methylphenyl)-N-(thiazol-2-ylmethyl)pyridin-3-amine]"
14,0.422,"Cc1cc(-c2ncccc2-c2ccc3ncoc3c2)ccc1F [Compound 180, 6-(2-(4-Fluoro-3-methylphenyl)pyridin-3-yl)benzo[d]oxazole]"
15,1.19,"CC(=O)c1cnc2ccc(-c3cccnc3-c3ccc(F)c(Cl)c3)cn12 [compound 762, 1-(6-(2-(3-Chloro-4-fluorophenyl)pyridin-3-yl)imidazo[1,2-a]pyridin-3-yl)ethan-1-one]"
16,0.266,"Cc1cc(-c2ncc(N)cc2-c2ccc3nccnc3c2)ccc1F [compound 239, 6-(4-Fluoro-3-methylphenyl)-5-(quinoxalin-6-yl)pyridin-3-amine]"
17,0.764,"Cc1cc(-c2ncc(NCc3cccc4cccnc34)cc2-c2ccc3ncsc3c2)ccc1F [compound 336, 5-(Benzo[d]thiazol-6-yl)-6-(4-fluoro-3-methylphenyl)-N-(quinolin-8-ylmethyl)pyridin-3-amine]"
18,1.19,"Clc1ccc(Cl)c(-c2ncccc2-c2ccn3ncnc3c2)c1 [compound 873, 7-(2-(2,5-Dichlorophenyl)pyridin-3-yl)-[1,2,4]triazolo[1,5-a]pyridine]"
19,0.642,"CCc1cccc(-c2ncccc2-c2ccc3[nH]ncc3c2)c1 [Compound 149, 5-(2-(3-Ethylphenyl)pyridin-3-yl)-1H-indazole]"

row,SMILES,IC50 [µM]
1,"Cc1cc(-c2ncccc2-c2ccn3ncc(C(=O)NC4CC5CCC(C4)N5C)c3c2)ccc1F (racemic) [compound 714, rac-5-(2-(4-Fluoro-3-methylphenyl)pyridin-3-yl)-N-(8-methyl-8-azabicyclo[3.2.1]octan-3-yl)pyrazolo[1,5-a]pyridine-3-carboxamide]",5.66
